Experimental data reported in US20240294464A1, “SYNTHESIS OF RESTRAINED COMPLEXING AGENTS” (Genentech, Inc., priority 2021, published 2024).

Assay: stability of compound 1 in prep-HPLC fractions
Format: physicochemical
Details: prep-HPLC fractions (0.01% TFA aqueous solution / acetonitrile); needs to freeze immediately for lyophilization
From the text: The crude compound 1 was purified by prep-HPLC (Mobile phase A: 0.01% TFA aqueous solution (v/v); Mobile phase B: Acetonitrile) and the purified product was lyophilized to give compound 1 with 98 A % HPLC purity as a white solid in 51% yield over two steps. (Note: The compound 1 in prep-HPLC fractions is not stable, and it needs to freeze immediately for lyophilization. The residual TFA in solid is 0.1 equiv to E)

stability in prep-HPLC fractions: not stable
SMILES: O=C(O)CN(CC(=O)O)[C@@H]1CCCC[C@H]1N(CC(=O)O)Cc1ccc(CC(=O)Oc2c(F)c(F)cc(F)c2F)cc1 [compound 1, 2,2′-(((1R,2R)-2-((carboxymethyl)(4-(2-oxo-2-(2,3,5,6-tetrafluorophenoxy)ethyl)benzyl)amino)cyclohexyl)azanediyl)diacetic acid]
